Experimental data as given in ChEMBL document CHEMBL5244224, “Antioxidant Activity of Natural Allylpolyalkoxybenzene Plant Essential Oil Constituents” (J Nat Prod, 2019).
Active and inactive are the calls of the source. No cut-off for these calls is given here.

Tests used:
Mus musculus [1] = species: Mus musculus; assay: Antioxidant activity in mouse brain homogenate assessed as inhibition of FeSO4/ascorbic acid induced lipid autoxidation by measuring reduction in TBARS formation at 0.1 mM preincubated with compound for 30 mins followed by FeSO4/ascorbic acid addition and measured after 1 hrs by TBARS assay; type: functional; settings: time 1.5 hrs
Erythrocyte [2] = assay: Antioxidant activity in mouse RBC assessed as inhibition of H2O2-induced hemolytic activity at 0.01 mM preincubated with compound for 30 mins followed by H2O2 addition and measured for 5 hrs; type: functional, cell-based; settings: time 5.5 hrs
Erythrocyte [3] = assay: Antioxidant activity in H2O2-induced mouse RBC cells assessed as inhibition of ferryl-hemoglobin formation at 0.01 mM preincubated with compound for 30 mins followed by H2O2 addition and measured after 5 hrs; type: functional, cell-based; settings: time 5.5 hrs
Erythrocyte [4] = assay: Antioxidant activity in H2O2-induced mouse RBC cells assessed as inhibition of methemoglobin formation at 0.01 mM preincubated with compound for 30 mins followed by H2O2 addition and measured after 5 hrs; type: functional, cell-based; settings: time 5.5 hrs
[5] = Antioxidant activity assessed as DPPH radical scavenging capacity at 0.1 mM incubated for 30 mins under dark condition by absorbance based assay; type: functional
[6] = Antioxidant activity assessed as DPPH radical scavenging capacity at 1 mM incubated for 30 mins under dark condition by absorbance based assay; type: functional
Mus musculus [7] = species: Mus musculus; assay: Antioxidant activity in mouse brain homogenate assessed as inhibition of FeSO4/ascorbic acid induced lipid autoxidation by measuring reduction in TBARS formation at 1 mM preincubated with compound for 30 mins followed by FeSO4/ascorbic acid addition and measured after 1 hrs by TBARS assay; type: functional; settings: time 1.5 hrs
Erythrocyte [8] = assay: Antioxidant activity in mouse RBC assessed as inhibition of H2O2-induced hemolytic activity at 0.1 mM preincubated with compound for 30 mins followed by H2O2 addition and measured after 5 hrs; type: functional, cell-based; settings: time 5.5 hrs
Mus musculus [9] = species: Mus musculus; assay: Antioxidant activity in mouse brain homogenate assessed as inhibition of FeSO4/ascorbic acid induced lipid autoxidation by measuring reduction in TBARS formation at 0.5 mM preincubated with isopropanol for 30 mins followed by compound addition for 30 mins and measured 1 hrs after FeSO4/ascorbic acid addition by TBARS assay; type: functional; settings: time 1.5 hrs
Erythrocyte [10] = assay: Antioxidant activity in H2O2-induced mouse RBC assessed as inhibition of lipid peroxidation by measuring MDA formation at 0.01 mM preincubated with compound for 30 mins followed by H2O2 addition and measured after 4 hrs by spectrophotometric analysis; type: functional, cell-based; settings: time 4.5 hrs
[11] = Hemolytic activity in mouse RBC assessed as hemolysis at 0.1 mM measured after 5 hrs; type: toxicity, cell-based, Erythrocyte; settings: mouse red blood cells, read-out: Activity
Erythrocyte [12] = assay: Antioxidant activity in H2O2-induced mouse RBC cells assessed as reduction in metHB/oxyHB ratio at 0.01 mM preincubated with compound for 30 mins followed by H2O2 addition and measured after 5 hrs; type: functional, cell-based; settings: time 5.5 hrs
Erythrocyte [13] = assay: Antioxidant activity in mouse RBC assessed as inhibition of H2O2-induced hemolytic activity at 0.01 mM preincubated with compound for 30 mins followed by H2O2 addition and measured at 1 to 3 hrs; type: functional, cell-based; settings: time 1.5-3.5 hrs

SMILES | Activity (Mus musculus [1]) | Activity (Erythrocyte [2]) | Activity (Erythrocyte [3]) | Activity (Erythrocyte [4]) | Activity [5] [%] | Activity [6] [%] | Activity (Mus musculus [7]) | Activity (Erythrocyte [8]) | Activity (Mus musculus [9]) | Activity (Erythrocyte [10]) | hemolysis at 5 h, 100 µM [11] [%] | Activity (Erythrocyte [12]) | Activity (Erythrocyte [13])
C=CCc1cc(OC)c(OC)c(OC)c1OC | inactive | Active | Active | Active | 0.1 | 1.47 | Active | inactive | – | – | – | – | –
Cc1c(C)c2c(c(C)c1O)CCC(C)(C(=O)O)O2 (stereo unspecified) | Active | – | – | – | 94.9 | – | – | – | – | – | – | – | –
C=CCc1cc(OC)c2c(c1)OCO2 [ELEMICIN] | Active | Active | Active | Active | 1.31 | 5.25 | Active | Active | inactive | – | – | – | –
C=CCc1c(OC)c(OC)c2c(c1OC)OCO2 | Active | inactive | – | – | 0.91 | 4.3 | Active | – | inactive | inactive | – | – | –
C=CCc1ccccc1 | inactive | Active | Active | Active | 1.01 | 4.29 | Active | inactive | – | – | – | – | –
C=CCc1ccc2c(c1)OCO2 [SAFROLE] | inactive | Active | Active | Active | 1.26 | 10.6 | Active | inactive | – | – | ≤ 10 | – | –
C=CCc1cc(OC)c2c(c1OC)OCO2 [APIOL] | Active | Active | Active | Active | 0.05 | 0.3 | Active | inactive | inactive | – | ≤ 10 | – | –
Cc1cc(C(C)(C)C)c(O)c(C(C)(C)C)c1 | Active | – | Active | Active | 72 | – | – | – | – | Active | – | Active | –
C=CCc1cc2c(c(OC)c1OC)OCO2 [DILLAPIOLE] | Active | Active | Active | Active | 0.38 | 3.94 | Active | Active | inactive | – | ≤ 10 | Active | –
C=CCc1c(O)c(OC)c2c(c1OC)OCO2 | Active | Active | – | – | 88.9 | 90.2 | Active | – | inactive | Active | – | – | Active
C=CCc1ccc(OC)cc1 | inactive | Active | Active | Active | 0.25 | 1.16 | Active | inactive | – | – | – | – | –
